Here are results for 11 compounds from patent US7671048B2, “Substituted imidazo [1,5-a][1,2,4]triazolo[1,5-d][1,4]benzodiazepine derivatives” (priority 2004, dated 2010).

In general, Ki refers to the dissociation constant of the complex between target and ligand, obtained from inhibition or displacement.

Where two headings read alike, the source gives them in different places.

One assay concerns the target T1, GABA A receptor α1β3γ2 (Homo sapiens, UniProt P14867+P18507).
T1 construct: expressed in transfected cells; host or cells: HEK293 (transiently transfected), membranes
The assay is described as follows: [3H]flumazenil competition binding, human α1β3γ2. How it is done: (§1) The affinity of compounds at GABA A receptor subtypes was measured by competition for [^3H]flumazenil (85 Ci/mmol; Roche) binding to HEK293 cells expressing rat (stably transfected) or human (transiently transfected) receptors of composition α1β3γ2, α2β3γ2, α3β3γ2 and α5β3γ2.
(§2) Cell pellets were suspended in Krebs-tris buffer (4.8 mM KCl, 1.2 mM CaCl2, 1.2 mM MgCl2, 120 mM NaCl, 15 mM Tris; pH 7.5; binding assay buffer), homogenized by polytron for ca. 20 sec on ice and centrifuged for 60 min at 4° C. (50000 g; Sorvall, rotor: SM24=20000 rpm). The cell pellets were resuspended in Krebs-tris buffer and homogenized by polytron for ca. 15 sec on ice. Protein was measured (Bradford method, Bio-Rad) and aliquots of 1 mL were prepared and stored at −80° C.
(§3) Radioligand binding assays were carried out in a volume of 200 μL (96-well plates) which contained 100 μL of cell membranes, [^3H]flumazenil at a concentration of 1 nM for α1, α2, α3 subunits and 0.5 nM for α5 subunits and the test compound in the range of 10^−10−3×10^−6 M. Nonspecific binding was defined by 10^−5 M diazepam and typically represented less than 5% of the total binding. Assays were incubated to equilibrium for 1 hour at 4° C. and harvested onto GF/C uni-filters (Packard) by filtration using a Packard harvester and washing with ice-cold-wash buffer (50 mM Tris; pH 7.5). After drying, filter-retained radioactivity was detected by liquid scintillation counting. Ki values were calculated using Excel-Fit (Microsoft) and are the means of two determinations.

For a further assay, the target named is T2, GABA A receptor α2β3γ2 (Homo sapiens, UniProt P18507+P47869).
T2 construct: expressed in transfected cells; host or cells: HEK293 (transiently transfected), membranes
The assay is described as follows: [3H]flumazenil competition binding, human α2β3γ2. As to the method:
as §1, §2, §3

The target in another assay is T3, GABA A receptor α3β3γ2 (Homo sapiens, UniProt P18507+P34903).
T3 construct: expressed in transfected cells; host or cells: HEK293 (transiently transfected), membranes
The assay is described as follows: [3H]flumazenil competition binding, human α3β3γ2. As to the method:
as §1, §2, §3

In another assay the target is T4, GABA A receptor α5β3γ2 (Homo sapiens, UniProt P18507+P31644).
T4 construct: expressed in transfected cells; host or cells: HEK293 (transiently transfected), membranes
The assay is described as follows: [3H]flumazenil competition binding, human α5β3γ2. As to the method:
as §1, §2, §3

[1] abbreviates: HEK293 cell membranes, human (transiently transfected) receptor, 1 nM [3H]flumazenil, mean of two determinations, read-out: Ki[nM] hα1.

Take `CC(=O)c1ncn2c1Cn1ncnc1-c1cc(F)ccc1-2` [Example 1, 1-[3-Fluoro-9H-imidazo[1,5-a][1,2,4]triazolo[1,5-d][1,4]benzodiazepin-10-yl]-ethanone]: the inhibition constant Ki on GABA A receptor α1β3γ2 (setting [1]) came to 314 nM; on GABA A receptor α2β3γ2 (HEK293 cell membranes, human (transiently transfected) receptor, 1 nM [3H]flumazenil, mean of two determinations, read-out: Ki[nM] hα2), 183 nM; at GABA A receptor α3β3γ2 (HEK293 cell membranes, human (transiently transfected) receptor, 1 nM [3H]flumazenil, mean of two determinations, read-out: Ki[nM] hα3) it was 233 nM; on GABA A receptor α5β3γ2 (HEK293 cell membranes, human (transiently transfected) receptor, 0.5 nM [3H]flumazenil, mean of two determinations, read-out: Ki[nM] hα5), 104 nM.
As for `CCC(=O)c1ncn2c1Cn1ncnc1-c1cc(F)ccc1-2` [Example 2, 1-[3-Fluoro-9H-imidazo[1,5-a][1,2,4]triazolo[1,5-d][1,4]benzodiazepin-10-yl]-propan-1-one], the inhibition constant (Ki) is 6.2 nM at GABA A receptor α1β3γ2, 3.4 nM at GABA A receptor α2β3γ2, 3.9 nM on GABA A receptor α3β3γ2 and 2.2 nM at GABA A receptor α5β3γ2.
`O=C(c1ncn2c1Cn1ncnc1-c1cc(F)ccc1-2)C1CC1` [Example 3, Cyclopropyl-[3-fluoro-9H-imidazo[1,5-a][1,2,4]triazolo[1,5-d][1,4]benzodiazepin-10-yl]-methanone]: the inhibitory constant (Ki) at GABA A receptor α1β3γ2 is 2.8 nM; on GABA A receptor α2β3γ2, 2 nM; at GABA A receptor α3β3γ2, 1.8 nM; at GABA A receptor α5β3γ2, 1.2 nM.
For `O=C(CCCc1ccccc1)c1ncn2c1Cn1ncnc1-c1cc(F)ccc1-2` [Example 4, 1-[3-Fluoro-9H-imidazo[1,5-a][1,2,4]triazolo[1,5-d][1,4]benzodiazepin-10-yl]-4-phenyl-butan-1-one], in that order: 45.6 nM, 60 nM, 55.9 nM and 16.4 nM.
Consider `CCC(=O)c1ncn2c1Cn1ncnc1-c1cc(Cl)ccc1-2` [Example 5, 1-[3-Chloro-9H-imidazo[1,5-a][1,2,4]triazolo[1,5-d][1,4]benzodiazepin-10-yl]-propan-1-one], for which the inhibition constant Ki stood at 32.2 nM at GABA A receptor α1β3γ2, 28.1 nM at GABA A receptor α2β3γ2, 22.4 nM at GABA A receptor α3β3γ2 and 2.7 nM on GABA A receptor α5β3γ2.
For the compound `O=C(c1ncn2c1Cn1ncnc1-c1cc(Cl)ccc1-2)C1CC1` [Example 6, Cyclopropyl-[3-chloro-9H-imidazo[1,5-a][1,2,4]triazolo[1,5-d][1,4]benzodiazepin-10-yl]-methanone], the Ki at GABA A receptor α1β3γ2 worked out at 14.5 nM; at GABA A receptor α2β3γ2, 18 nM; at GABA A receptor α3β3γ2, 19.9 nM; on GABA A receptor α5β3γ2, 2.2 nM.
On the same counts, the results for `O=C1CCCN1C(=O)c1ncn2c1Cn1ncnc1-c1cc(F)ccc1-2` [Example 9, 1-[[3-Fluoro-9H-imidazo[1,5-a][1,2,4]triazolo[1,5-d][1,4]benzodiazepin-10-yl]carbonyl]-2-pyrrolidinone] are 12.3 nM, 12.3 nM, 9 nM and 5.8 nM.
In the case of `C#CCNC(=O)c1ncn2c1Cn1ncnc1-c1cc(F)ccc1-2` [Example 10, 3-Fluoro-9H-imidazo[1,5-a][1,2,4]triazolo[1,5-d][1,4]benzodiazepine-10-carboxylic acid prop-2-ynylamide], the Ki amounted to 242 nM at GABA A receptor α1β3γ2 (setting [1]), 67.8 nM at GABA A receptor α2β3γ2, 64.9 nM at GABA A receptor α3β3γ2 and 67.8 nM at GABA A receptor α5β3γ2.
As to `CCOC(=O)c1ncn2c1Cn1ncnc1-c1cc(C3CC3)ccc1-2` [Example 12, Ethyl 3-cyclopropyl-9H-imidazo[1,5-a][1,2,4]triazolo[1,5-d][1,4]benzodiazepine-10-carboxylate], the Ki on GABA A receptor α1β3γ2 is 1.7 nM; on GABA A receptor α2β3γ2, 0.9 nM; at GABA A receptor α3β3γ2 it was 0.7 nM; at GABA A receptor α5β3γ2, 0.6 nM.
Take `CCOC(=O)c1ncn2c1Cn1ncnc1-c1cc(OC)ccc1-2` [Example 14, Ethyl 3-methoxy-9H-imidazo[1,5-a][1,2,4]triazolo[1,5-d][1,4]benzodiazepine-10-carboxylate]: the Ki on GABA A receptor α1β3γ2 is 0.9 nM; on GABA A receptor α2β3γ2, 1.7 nM; at GABA A receptor α3β3γ2, 0.9 nM; at GABA A receptor α5β3γ2, 0.2 nM.
Turning to `CCOC(=O)c1ncn2c1Cn1ncnc1-c1cc(OC(F)(F)F)ccc1-2` [Example 19, Ethyl 3-trifluoromethoxy-9H-imidazo[1,5-a][1,2,4]triazolo[1,5-d][1,4]benzodiazepine-10-carboxylate], the Ki on GABA A receptor α1β3γ2 worked out at 3.4 nM; at GABA A receptor α2β3γ2, 1.1 nM; on GABA A receptor α3β3γ2, 1.4 nM; at GABA A receptor α5β3γ2, 0.7 nM.
